# From patent publication US20040043942A1, “Vitamin preparations for reducing oxygen consumption during physical efforts” (priority 1996, published 2004)
# Where “and” joins values, the source holds several entries; their conditions need not be identical. Identical values can stand only once.
# Tests used:
# [1] = test system: muscle glycogen synthesis; test: stimulation of glycogen synthesis and of anaerobic glucose breakdown in the muscle (general statement); assay type: in vivo; conditions: even if taken together with vitamin B1 and vitamin C
# [2] = test system: two male individuals, trained for endurance cycling; test: Example 39 a): ergometer test, medicaments and Preparations applied 15 minutes before the test; assay type: in vivo, human
# Description: Analogously to Example 37, the following studies a) to c) were carried out on two male individuals, trained for endurance cycling and kept on a permanently carbohydrate-rich diet; individual A (weighing 67 kg) having a maximum oxygen uptake capacity of 3.3 l and an oxygen transport volume per heart beat of 29 ml (corresponding to 0.6 kJ), and individual B (weighing 74 kg) having a maximum oxygen uptake capacity of 4.5 l and an oxygen transport volume per heart beat of 36 ml (corresponding to 0.75 kJ). The following preparations were used, in which the indicated amounts correspond to one dose unit and which were obtained by dissolving or suspending the components in water and gelling the mixture:
# H-Gly-Gly-OH was bought from Novabiochem, Läufelfingen, Switzerland. Insulin was injected subcutaneously, while the other medicaments were ingested alone or together with one of Preparations I-IV.
# a) In a first study, insulin or antidiabetic sulphonylurea derivatives were applied, alone or in combination with gelatin and/or Preparation I or II, 15 minutes before the tests. In the tests, individual A was subjected to a workload of 100 W (60 r.p.m.) for 15 minutes (tests A1-A8), and individual B was subjected to a workload of 175 W (60 r.p.m.) for 10 minutes (tests B9-B29).
Compound,stimulation of glycogen synthesis and of the anaerobic glucose breakdown in the muscle (in words) [1],effect on heat production and oxygen consumption induced by constant physical work loads (in words) ([2]; applied 15 minutes before the test),"Oxygen consumption ([2]; individual B, 175 W for 10 min, 15 min before: 5 I.U. insulin s.c., 2.5 mg glibenclamide alone, with 5 mg gelatin: 100 μg glibenclamide or 10 mg chlorpropamide, Prep. one dose unit)"
O=C(CO)[C@@H](O)[C@H](O)[C@H](O)CO [fructose],ineffective,,
OC[C@H]1O[C@@](CO)(O[C@H]2O[C@H](CO)[C@@H](O)[C@H](O)[C@H]2O)[C@@H](O)[C@@H]1O [sucrose],ineffective,,
insulin,,increase the heat production and oxygen consumption,32 liter and 33 liter (2×)
